Data: publication PMC12720098, “Prolintane analogs as hybrid monoamine transporter ligands: Structural determinants and species differences” (The Journal of Biological Chemistry, 2025)
Read-outs that look alike come from different tables or passages of the source.

Tests used:
Type in all cases: cell-based
[1] = target: T1, hSERT (Homo sapiens, UniProt P31645); details: batch release, % efflux of total uptake, compounds approximately at IC50 concentration
T1 construct: expressed in transfected cells
Description: (§1) Batch release assays were performed as described previously ([44]). In brief, HEK293 cells stably expressing monoamine transporters were seeded similar to the procedure used for uptake inhibition assays. A day after seeding cells were pre-loaded with 50 μl/well 0.015 μM [^3H]MPP^+ (hDAT, hNET), or 0.08 μM [^3H]5-HT (hSERT) for 20 min at 37 °C. Then cells were washed four times for 3 to 4 min each and further incubated with KHB or KHB + monensin. After 10 min of incubation, two (screening) to four (full traces; hSERT) 2 min incubations were performed to establish a baseline release without substance. […] Each fraction was transferred to an empty well in the 96-well plate. For screening, a known inhibitor (hDAT, hNET: 50 μM GBR12909) and releaser (hDAT, hNET: 10 μM S-(+)-amphetamine) were used as controls. Ultima Gold XR scintillation cocktail was added to the remaining cells, and each well contained a release fraction. The counted radioactivity in the respective fraction was expressed as a percentage of total radioactivity at the start of the fraction.
(§2) Half-maximal inhibitory concentrations (IC50) were obtained from fitting a sigmoidal dose–response ( Y=Bottom+Top−Bottom/1+10^((LogIC50−X)·HillSlope) ) in GraphPad Prism 10.3.1 (GraphPad Software Inc.). Uptake inhibition data were evaluated by one-way ANOVA followed by Tukey's multiple comparisons test. Release data were analyzed using a two-way ANOVA (batch release) or a mixed-effects model with Geisser-Greenhouse correction (time-dependent traces) employing Šidák correction for comparing differences between compounds with or without the addition of monensin.

[2] = target: T1, hSERT; test: Uptake inhibition assay ([3H]5-HT) in transfected HEK293 cells
Description: HEK293 cells stably expressing human monoamine transporters hSERT, hDAT or hNET were seeded into poly-D-lysine (PDL) coated 96-well plates with a density of approximately 36,000 cells per well 1 day prior to experiments. A day after seeding, the cell medium was replaced with 200 μl Krebs-HEPES-buffer (KHB; 120 mM NaCl, 3 mM KCl, 2 mM CaCl2·2H2O, 2 mM MgCl2·6H2O, 20 mM D-glucose, pH = 7.3). The test drugs were initially dissolved in Milli-Q H2O or dimethyl sulfoxide (DMSO) at a concentration of 10 to 100 mM. Then, cells were treated with the respective concentration of the test drug diluted in KHB for 5 min as a pre-incubation step. Subsequently, in the uptake step, the solution was replaced with 50 μl/well diluted drug solution and tritiated substrate (hDAT: 0.1 μM [^3H]DA; hNET: 0.02 μM [^3H]MPP^+; hSERT: 0.1 μM [^3H]5-HT) for 1 min (hDAT, hSERT) or 3 min (hNET). After incubation, cells were immediately washed with 200 μl KHB to stop uptake. Uptake was indirectly measured by quantifying beta emission with liquid scintillation counting (Wallac 1450 MicroBeta TriLux Liquid Scintillation Counter & Lumi; GMI). Therefore, 200 μl Ultima Gold XR scintillation cocktail (PerkinElmer, MA, USA) was added to each well.
as §2

[3] = target: T2, hDAT (Homo sapiens, UniProt Q01959); test: Batch release assay ([3H]MPP+) in transfected HEK293 cells; details: % efflux of total uptake, compounds approximately at IC50 concentration
T2 construct: expressed in transfected cells
Description: as §1, §2

[4] = target: T3, hNET (Homo sapiens, UniProt P23975); test: as above; details: % efflux of total uptake, compounds approximately at IC50 concentration
T3 construct: expressed in transfected cells
Description: as §1, §2

[5] = target: T1, hSERT; details: for Mean diff, hSERT efflux ± Mon (Šídák's multiple comparisons test): drug alone vs drug + monensin (Mon); for hSERT efflux ± Mon, mean diff: superfusion
Description: A day prior to the experiment, HEK293 cells stably expressing hSERT or rat SERT (rSERT) were seeded at a density of 100,000 cells per channel into 6 channel flow ibidi slides (Gräfelfing, Germany). On the day of the experiments, cells were preloaded with 0.1 μM [^3H]5-HT at 37 °C, 5% CO2 for 20 min. Subsequently, the slides were transferred to the superfusion apparatus ([59]). Cells were then washed with KHB for 15 min under a constant flow of 0.5 ml/min. Fractions were collected every 2 min in 8 ml vials containing 2 ml scintillation cocktail. Collection began with three baseline fractions using KHB, followed by four additional basal release fractions with KHB, either with or without 10 μM monensin. […] To assess residual radioactivity within the cells, they were lysed with 1% sodium dodecyl sulfate (SDS), and three final fractions were obtained. The measured tritiated substrate in each fraction was expressed as a percentage of the initial tritiated substrate present at the start of that fraction.
as §2

T1 sequence (P31645 whole entry): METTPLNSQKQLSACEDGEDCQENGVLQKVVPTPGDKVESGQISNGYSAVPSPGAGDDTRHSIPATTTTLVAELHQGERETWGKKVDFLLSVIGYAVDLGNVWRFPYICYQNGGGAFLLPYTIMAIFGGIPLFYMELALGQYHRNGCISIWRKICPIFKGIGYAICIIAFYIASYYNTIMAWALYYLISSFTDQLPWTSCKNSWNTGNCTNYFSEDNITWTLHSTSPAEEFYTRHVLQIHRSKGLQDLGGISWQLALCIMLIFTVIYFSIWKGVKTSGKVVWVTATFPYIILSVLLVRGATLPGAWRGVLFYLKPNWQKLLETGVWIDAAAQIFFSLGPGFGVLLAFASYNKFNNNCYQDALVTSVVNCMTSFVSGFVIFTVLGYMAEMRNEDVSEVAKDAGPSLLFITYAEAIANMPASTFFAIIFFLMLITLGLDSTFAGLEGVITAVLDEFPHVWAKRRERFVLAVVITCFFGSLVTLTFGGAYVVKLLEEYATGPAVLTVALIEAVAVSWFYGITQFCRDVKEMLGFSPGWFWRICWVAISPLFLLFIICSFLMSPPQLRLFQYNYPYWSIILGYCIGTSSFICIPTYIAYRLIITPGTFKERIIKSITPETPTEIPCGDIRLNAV
T2 sequence (Q01959 whole entry): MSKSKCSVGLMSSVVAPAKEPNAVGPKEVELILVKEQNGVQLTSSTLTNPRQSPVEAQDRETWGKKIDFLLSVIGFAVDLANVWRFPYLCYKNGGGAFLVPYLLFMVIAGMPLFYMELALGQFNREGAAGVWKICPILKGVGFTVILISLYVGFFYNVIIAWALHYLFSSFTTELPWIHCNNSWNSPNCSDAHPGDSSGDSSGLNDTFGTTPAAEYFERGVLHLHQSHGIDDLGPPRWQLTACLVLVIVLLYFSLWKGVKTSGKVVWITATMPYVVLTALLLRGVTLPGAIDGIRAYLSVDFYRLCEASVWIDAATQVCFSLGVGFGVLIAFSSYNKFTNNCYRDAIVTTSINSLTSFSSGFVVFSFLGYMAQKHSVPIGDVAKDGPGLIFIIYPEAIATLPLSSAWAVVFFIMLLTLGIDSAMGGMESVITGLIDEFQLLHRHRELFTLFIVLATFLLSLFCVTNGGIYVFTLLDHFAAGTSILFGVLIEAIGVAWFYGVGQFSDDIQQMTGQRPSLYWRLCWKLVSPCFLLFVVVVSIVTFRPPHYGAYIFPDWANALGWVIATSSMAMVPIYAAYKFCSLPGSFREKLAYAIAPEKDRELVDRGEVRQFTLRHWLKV
T3 sequence (P23975 whole entry): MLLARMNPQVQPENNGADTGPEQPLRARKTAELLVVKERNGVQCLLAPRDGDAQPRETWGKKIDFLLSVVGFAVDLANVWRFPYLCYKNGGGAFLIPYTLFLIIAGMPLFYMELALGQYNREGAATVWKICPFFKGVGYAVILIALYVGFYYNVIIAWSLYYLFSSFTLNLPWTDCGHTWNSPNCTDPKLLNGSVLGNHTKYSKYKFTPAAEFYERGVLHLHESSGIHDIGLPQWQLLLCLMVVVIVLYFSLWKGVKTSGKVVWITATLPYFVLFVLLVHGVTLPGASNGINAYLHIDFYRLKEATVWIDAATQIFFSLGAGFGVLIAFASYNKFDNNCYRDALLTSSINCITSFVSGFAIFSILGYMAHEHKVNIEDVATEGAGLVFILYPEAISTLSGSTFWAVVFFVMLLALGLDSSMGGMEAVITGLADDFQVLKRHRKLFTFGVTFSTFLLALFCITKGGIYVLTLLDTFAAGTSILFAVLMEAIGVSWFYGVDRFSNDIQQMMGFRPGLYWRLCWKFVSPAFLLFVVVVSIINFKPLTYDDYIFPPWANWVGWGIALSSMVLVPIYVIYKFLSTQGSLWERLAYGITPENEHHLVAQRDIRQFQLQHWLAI

SMILES | hSERT-mediated efflux, predicted (LS) mean diff, No mon - Mon [1] | IC50 [2] [µM] | hDAT-mediated efflux, predicted (LS) mean diff, No mon - Mon [3] | hNET-mediated efflux, predicted (LS) mean diff, No mon - Mon [4] | Mean diff, hSERT efflux ± Mon (Šídák's multiple comparisons test) ([5]; Row 1 (time fraction)) | Mean diff, hSERT efflux ± Mon (Šídák's multiple comparisons test) ([5]; Row 2 (time fraction)) | Mean diff, hSERT efflux ± Mon (Šídák's multiple comparisons test) ([5]; Row 3 (time fraction)) | Mean diff, hSERT efflux ± Mon (Šídák's multiple comparisons test) ([5]; Row 4 (time fraction)) | Mean diff, hSERT efflux ± Mon (Šídák's multiple comparisons test) ([5]; Row 5 (time fraction)) | Mean diff, hSERT efflux ± Mon (Šídák's multiple comparisons test) ([5]; Row 6 (time fraction)) | Mean diff, hSERT efflux ± Mon (Šídák's multiple comparisons test) ([5]; Row 7 (time fraction)) | Mean diff, hSERT efflux ± Mon (Šídák's multiple comparisons test) ([5]; Row 8 (time fraction)) | Mean diff, hSERT efflux ± Mon (Šídák's multiple comparisons test) ([5]; Row 9 (time fraction)) | Mean diff, hSERT efflux ± Mon (Šídák's multiple comparisons test) ([5]; Row 10 (time fraction)) | Mean diff, hSERT efflux ± Mon (Šídák's multiple comparisons test) ([5]; Row 11 (time fraction)) | Mean diff, hSERT efflux ± Mon (Šídák's multiple comparisons test) ([5]; Row 12 (time fraction)) | other results
CCCC(Cc1cccc(F)c1)N1CCCC1 (stereo not shown) [3-Fluoroprolintane, 1-[1-(3-fluorophenyl)pentan-2-yl]pyrrolidine] | -5.404 | 13.5 ± 1.84 | 0.0325 | 0.3678 | 0,003889 | -0,003000 | 0,02067 | -0,01133 | -0,1369 | -0,2296 | -0,2910 | -4,827 | -7,510 | -7,391 | -7,140 | -7,011 | 
CCCC(Cc1ccccc1C)N1CCCC1 (stereo not shown) [2-Methylprolintane, 1-[1-(2-methylphenyl)pentan-2-yl]pyrrolidine] | -4.459 | 4.25 ± 1.78 | -0.04333 | -0.3417 |  |  |  |  |  |  |  |  |  |  |  |  | hSERT efflux ± Mon, mean diff ([5]; Row 1 (2 min fraction 1, baseline KHB)): 0.1289; hSERT efflux ± Mon, mean diff ([5]; Row 2 (2 min fraction 2, baseline KHB)): 0.1185; hSERT efflux ± Mon, mean diff ([5]; Row 3 (2 min fraction 3, baseline KHB)): 0.1694; hSERT efflux ± Mon, mean diff ([5]; Row 4 (fraction 4, KHB with or without 10 μM monensin)): 0.04832; hSERT efflux ± Mon, mean diff ([5]; Row 5 (fraction 5, KHB with or without 10 μM monensin)): -0.1068; hSERT efflux ± Mon, mean diff ([5]; Row 6 (fraction 6, KHB with or without 10 μM monensin)): -0.2079; hSERT efflux ± Mon, mean diff ([5]; Row 7 (fraction 7, KHB with or without 10 μM monensin)): -0.2202; hSERT efflux ± Mon, mean diff ([5]; Row 8 (fraction 8, compound at IC50 concentration)): -5.467; hSERT efflux ± Mon, mean diff ([5]; Row 9 (fraction 9, compound at IC50 concentration)): -7.92; hSERT efflux ± Mon, mean diff ([5]; Row 10 (fraction 10, compound at IC50 concentration)): -7.744; hSERT efflux ± Mon, mean diff ([5]; Row 11 (fraction 11, compound at IC50 concentration)): -7.355; hSERT efflux ± Mon, mean diff ([5]; Row 12 (fraction 12, compound at IC50 concentration)): -7.467
CCCC(Cc1cccc(C)c1)N1CCCC1 (stereo not shown) [3-Methylprolintane, 1-[1-(3-methylphenyl)pentan-2-yl]pyrrolidine] | -5.6 | 2.95 ± 0.541 | -0.702 | -0.8634 | 0.05456 | 0.01844 | 0.02833 | 0.07733 | -0.1496 | -0.229 | -0.329 | -4.546 | -6.038 | -6.018 | -5.904 | -5.776 | 
CCCC(Cc1ccccc1F)N1CCCC1 (stereo not shown) [2-Fluoroprolintane, 1-[1-(2-fluorophenyl)pentan-2-yl]pyrrolidine] | -6.392 | 35.2 ± 9.25 | -0.6425 | 0.3867 | -0.05533 | -0.01811 | -0.031 | -0.05989 | -0.128 | -0.2267 | -0.3166 | -4.727 | -7.079 | -7.103 | -6.897 | -6.561 | 
CCCC(Cc1ccc(F)cc1)N1CCCC1 (stereo not shown) [4-Fluoroprolintane, 1-[1-(4-fluorophenyl)pentan-2-yl]pyrrolidine] | -7.206 | 19.6 ± 2.43 | -0.2875 | 0.3845 | -0,0007778 | 0,02200 | 0,004889 | -0,08044 | -0,1983 | -0,2323 | -0,3017 | -8,349 | -9,598 | -8,382 | -7,454 | -6,666 | 
CCCC(Cc1ccc(C)cc1)N1CCCC1 (stereo not shown) [4-Methylprolintane, 1-[1-(4-methylphenyl)pentan-2-yl]pyrrolidine] | -4.314 | 2.56 ± 0.515 | -0.8967 | -0.3451 | -0,002444 | 0,005667 | -0,04278 | -0,1390 | -0,3006 | -0,3681 | -0,4242 | -4,103 | -5,748 | -5,723 | -5,744 | -5,949 | inhibitory potency at hSERT compared to pyrovalerone, fold greater ([2]; pyrovalerone value ref 53): 10 fold
